# According to ChEMBL document CHEMBL2401697, “Indazoles as potential c-Met inhibitors: design, synthesis and molecular docking studies” (Eur J Med Chem, 2013):
# System: MKN-45
# Experiment: Cytotoxicity against human MKN45 cells after 1 hr by Western blotting analysis
# Settings: MKN-45, 1 h
row,SMILES,IC50
1,Cn1cc(-c2ccc3cnn(Cc4ccc5ncccc5c4)c3c2)cn1,12.9 µM
2,c1cnc2ccc(Cn3ncc4ccc(-c5cnn(CCOC6CCCCO6)c5)cc43)cc2c1 (stereo not given),14 µM
3,OCCn1cc(-c2ccc3cnn(Cc4ccc5ncccc5c4)c3c2)cn1,6.72 µM
4,CC(C)(C)[Si](C)(C)O[C@H]1CC[C@H](n2cc(-c3ccc4cnn(Cc5ccc6ncccc6c5)c4c3)cn2)CC1,11 µM
5,O[C@H]1CC[C@H](n2cc(-c3ccc4cnn(Cc5ccc6ncccc6c5)c4c3)cn2)CC1,5.45 µM
6,Cn1cc(-c2ccc3cn(Cc4ccc5ncccc5c4)nc3c2)cn1,106 µM
7,c1cnc2ccc(Cn3cc4ccc(-c5cnn(CCOC6CCCCO6)c5)cc4n3)cc2c1 (stereo not given),12 µM
8,OCCn1cc(-c2ccc3cn(Cc4ccc5ncccc5c4)nc3c2)cn1,110 µM
9,CC(C)(C)[Si](C)(C)O[C@H]1CC[C@H](n2cc(-c3ccc4cn(Cc5ccc6ncccc6c5)nc4c3)cn2)CC1,1300 µM
10,O[C@H]1CC[C@H](n2cc(-c3ccc4cn(Cc5ccc6ncccc6c5)nc4c3)cn2)CC1,13.4 µM
